The values below come from US9561228B2 (Celgene Avilomics Research, Inc., priority 2013, dated 2017).

Usually GI50 stands for the concentration at which growth is held to half of that of the control. A low value points to greater sensitivity of the cells.

What all share (type): cell-based
For assay [1], the system named is ERK1/2 phosphorylation of p90RSK in HT29 cells. The assay can be described thus: pRSK MSD Assay in HT29 cells. To be noted: Homo sapiens, HT-29, read-out: ERK1/ERK2 PRSK MSD HT29 EC50. Summed up: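 Serum-starved HT29 cells (0.1% FBS overnight) treated with test compound for 120 min at 37° C, then lysed with protease and phosphatase inhibitors. Phospho-p90RSK quantified by MSD sandwich immunoassay: RSK capture antibody, phospho-RSK detection antibody plus Sulfo-tagged antibody, electrochemiluminescence read.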

For assay [2], the system named is A375 cells (malignant melanoma). The assay can be described thus: Inhibition of cancer cell proliferation, A375 (CellTiterGlo, 72 hours). To be noted: Homo sapiens, A-375. Summed up:
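A375 melanoma cells, 3000/well, exposed 72 h at 37 °C to compound in 3-fold serial dilutions (solution added as 2× stock starting at 5,000 nM in serum-free DMEM). CellTiterGlo luminescence converted to cell number via standard curve; % inhibition vs untreated control, GI50 from curve fit.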
For orientation: ATP-based viability assays read luminescence as a measure of living cells.

The subject of assay [3] is ERK1/2 phosphorylation of p90RSK in HCT116 cells. Description: Detection of total and phospho-RSK by MSD ELISA (HCT116). To be noted: Homo sapiens, HCT-116, read-out: ERK1/ERK2 PRSK HCT116 EC50. The essentials: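 HCT116 cells treated with compound in RPMI/10% FBS for 2 h at 37° C, then lysed. Phospho-RSK (Ser380) and total RSK in lysates measured by MSD sandwich electrochemiluminescence ELISA as a readout of ERK1/2 activity.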
For orientation: ELISA stands for enzyme-linked immunosorbent assay.

Molecules are shown by their SMILES.

For the molecule `C=CC(=O)Nc1cc(C)c(F)cc1Nc1nc(Nc2nc(OC)ncc2C)ncc1C(F)(F)F` [Compound I-377, N-(4-fluoro-2-((2-((2-methoxy-5-methylpyrimidin-4-yl)amino)-5-(trifluoromethyl)pyrimidin-4-yl)amino)-5-methylphenyl)acrylamide], the EC50 in assay [1] and in assay [3] was less than 100 nM throughout. For the same molecule, the GI50 in assay [2] fell in the range of 101 to 500 nM.

As to `C=CC(=O)Nc1cc(C)ccc1Nc1nc(Nc2nc(OC)ccc2Cl)ncc1C(F)(F)F` [Compound I-360, N-(2-((2-((3-chloro-6-methoxypyridin-2-yl)amino)-5-(trifluoromethyl)pyrimidin-4-yl)amino)-5-methylphenyl)acrylamide], the EC50 lay within 101 to 500 nM in assay [1] and 501 to 999 nM in assay [3]. The concentration for 50% growth inhibition (GI50) in assay [2] lay within 101 to 500 nM.

As for `C=CC(=O)Nc1cc(C)ccc1Nc1nc(Nc2ncc(C(F)(F)F)c(OC)n2)ncc1C(F)(F)F` [Compound I-354, N-(2-((2-((4-methoxy-5-(trifluoromethyl)pyrimidin-2-yl)amino)-5-(trifluoromethyl)pyrimidin-4-yl)amino)-5-methylphenyl)acrylamide], the EC50 in assay [1] and in assay [3] was 101 to 500 nM each time. Also, the GI50 in assay [2] fell in the range of 501 to 999 nM.

Take `C=CC(=O)Nc1cc(CN2CCN(C(=O)c3cnccn3)CC2)ccc1Nc1nc(Nc2cc(OC)ncc2C)ncc1C(F)(F)F` [Compound I-390, N-(2-((2-((2-methoxy-5-methylpyridin-4-yl)amino)-5-(trifluoromethyl)pyrimidin-4-yl)amino)-5-((4-(pyrazine-2-carbonyl)piperazin-1-yl)methyl)phenyl)acrylamide]: the EC50 in assay [1] and in assay [3] was less than 100 nM throughout. The molecule further had a concentration for 50% growth inhibition (GI50) in assay [2] of less than 100 nM.

Turning to `C=CC(=O)Nc1cc(C)ccc1Nc1nc(Nc2cc(OCCOC)ncc2C)ncc1C(F)(F)F` [Compound I-359, N-(2-((2-((2-(2-methoxyethoxy)-5-methylpyridin-4-yl)amino)-5-(trifluoromethyl)pyrimidin-4-yl)amino)-5-methylphenyl)acrylamide], the results for the EC50 in assay [1] and in assay [3] were 101 to 500 nM and 501 to 999 nM, respectively. The molecule further came in with a 50% growth inhibitory concentration (GI50) in assay [2] of 101 to 500 nM.

Consider `C=CC(=O)Nc1cc(C)ccc1Nc1nc(Nc2cc(NCCOC)nc(OC)c2)ncc1C(F)(F)F` [Compound I-294, N-(2-((2-((2-methoxy-6-((2-methoxyethyl)amino)pyridin-4-yl)amino)-5-(trifluoromethyl)pyrimidin-4-yl)amino)-5-methylphenyl)acrylamide], for which the EC50 in assay [1] and in assay [3] was less than 100 nM throughout. Moreover, the GI50 in assay [2] is less than 100 nM.

Regarding `C=CC(=O)Nc1cc(CN2CCN(S(C)(=O)=O)CC2)ccc1Nc1nc(Nc2cc(OC)ncc2C)ncc1C(F)(F)F` [Compound I-384, N-(2-((2-((2-methoxy-5-methylpyridin-4-yl)amino)-5-(trifluoromethyl)pyrimidin-4-yl)amino)-5-((4-(methylsulfonyl)piperazin-1-yl)methyl)phenyl)acrylamide], the EC50 in assay [1] and in assay [3] was less than 100 nM in each case. In assay [2], this molecule gave a 50% growth inhibitory concentration (GI50) of less than 100 nM.

Take `C=CC(=O)Nc1cc(C)ccc1Nc1nc(Nc2cc(N[C@H]3CC[C@](C)(O)CC3)nc(OC)c2)ncc1C(F)(F)F` [Compound I-327, N-(2-((2-((2-((trans-4-hydroxy-4-methylcyclohexyl)amino)-6-methoxypyridin-4-yl)amino)-5-(trifluoromethyl)pyrimidin-4-yl)amino)-5-methylphenyl)acrylamide]: the concentration for 50% growth inhibition (GI50) in assay [2] was less than 100 nM. Also, the EC50 in assay [3] is less than 100 nM.

Consider `C=CC(=O)Nc1cc(CN2CCN(C(=O)c3cccnc3)CC2)ccc1Nc1nc(Nc2cc(OC)ncc2C)ncc1C(F)(F)F` [Compound I-389, N-(2-((2-((2-methoxy-5-methylpyridin-4-yl)amino)-5-(trifluoromethyl)pyrimidin-4-yl)amino)-5-((4-nicotinoylpiperazin-1-yl)methyl)phenyl)acrylamide], for which the EC50 in assay [1] and in assay [3] was less than 100 nM throughout. The molecule also came in with a GI50 in assay [2] of less than 100 nM.

Take `C=CC(=O)Nc1ccccc1Nc1nc(Nc2cc(OC)ncc2C)ncc1C(F)(F)F` [Compound I-85, N-(2-((2-((2-Methoxy-5-methylpyridin-4-yl)amino)-5-(trifluoromethyl)pyrimidin-4-yl)amino)phenyl)acrylamide]: the EC50 in assay [1] and in assay [3] was less than 100 nM throughout. This molecule also came in with a GI50 in assay [2] of less than 100 nM.

As for `C=CC(=O)Nc1cc(C)ccc1Nc1nc(Nc2cc(C(C)=O)ccc2C)ncc1C(F)(F)F` [Compound I-84, N-(2-((2-((5-Acetyl-2-methylphenyl)amino)-5-(trifluoromethyl)pyrimidin-4-yl)amino)-5-methylphenyl)acrylamide], in assay [1], the EC50 is less than 100 nM. The molecule also returned a concentration for 50% growth inhibition (GI50) in assay [2] of 101 to 500 nM.

For the molecule `C=CC(=O)Nc1cc(C)ccc1Nc1nc(Nc2cc(OC)nc(OC)c2)ncc1C(F)(F)F` [Compound I-96], in assay [2], the GI50 fell in the range of 101 to 500 nM.

In assay [2], `C=CC(=O)Nc1cc(C)ccc1Nc1nc(Nc2nc(OC)ncc2Cl)ncc1C(F)(F)F` [Compound I-344, N-(2-((2-((5-chloro-2-methoxypyrimidin-4-yl)amino)-5-(trifluoromethyl)pyrimidin-4-yl)amino)-5-methylphenyl)acrylamide] came in with a 50% growth inhibitory concentration (GI50) of 101 to 500 nM. Also, the EC50 in assay [3] fell in the range of 101 to 500 nM.

In the case of `C=CC(=O)Nc1ccccc1Nc1nc(Nc2cc(OC)nc(N3CCN(C(C)=O)CC3)c2)ncc1C(F)(F)F` [Compound I-92], the GI50 in assay [2] is less than 100 nM. Also, the EC50 in assay [3] is less than 100 nM.

Take `C=CC(=O)Nc1cc(OCCN)ccc1Nc1nc(Nc2cc(OC)ncc2C)ncc1C(F)(F)F` [Compound I-396, N-(5-(2-aminoethoxy)-2-((2-((2-methoxy-5-methylpyridin-4-yl)amino)-5-(trifluoromethyl)pyrimidin-4-yl)amino)phenyl)acrylamide]: the EC50 in assay [1] and in assay [3] was 101 to 500 nM each time.

With `C=CC(=O)Nc1cc(CN2CCN(C(C)=O)C[C@@H]2C)ccc1Nc1nc(Nc2cc(OC)ncc2C)ncc1C(F)(F)F` [Compound I-421, (S)—N-(5-((4-acetyl-2-methylpiperazin-1-yl)methyl)-2-((2-((2-methoxy-5-methylpyridin-4-yl)amino)-5-(trifluoromethyl)pyrimidin-4-yl)amino)phenyl)acrylamide], the EC50 in assay [1] and in assay [3] was 101 to 500 nM throughout.

In the case of `C=CC(=O)Nc1cc(C)c(C#N)cc1Nc1nc(NC2CCOCC2)ncc1C(F)(F)F` [Compound I-397, N-(4-cyano-5-methyl-2-((2-((tetrahydro-2H-pyran-4-yl)amino)-5-(trifluoromethyl)pyrimidin-4-yl)amino)phenyl)acrylamide], the figures for the EC50 in assay [1] and in assay [3] were 501 to 999 nM and more than 1000 nM, respectively.

Turning to `C=CC(=O)Nc1c(Nc2nc(Nc3cc(OC)ncc3C)ncc2C(F)(F)F)ccc(C)c1F` [Compound I-367, N-(2-fluoro-6-((2-((2-methoxy-5-methylpyridin-4-yl)amino)-5-(trifluoromethyl)pyrimidin-4-yl)amino)-3-methylphenyl)acrylamide], the EC50 in assay [1] was in the range of 101 to 500 nM; in assay [3] it was 501 to 999 nM.

As for `C=CC(=O)Nc1cc(CCc2cnn(C)c2)ccc1Nc1nc(Nc2cc(OC)ncc2C)ncc1C(F)(F)F` [Compound I-427, N-(2-((2-((2-methoxy-5-methylpyridin-4-yl)amino)-5-(trifluoromethyl)pyrimidin-4-yl)amino)-5-(2-(1-methyl-1H-pyrazol-4-yl)ethyl)phenyl)acrylamide], the values for the EC50 in assay [1] and in assay [3] were 101 to 500 nM and 501 to 999 nM, respectively.

In the case of `C=CC(=O)Nc1ccc(OCC(N)=O)cc1Nc1nc(NC2CCOCC2)ncc1C(F)(F)F` [Compound I-395, N-(4-(2-amino-2-oxoethoxy)-2-((2-((tetrahydro-2H-pyran-4-yl)amino)-5-(trifluoromethyl)pyrimidin-4-yl)amino)phenyl)acrylamide], the EC50 in assay [1] and in assay [3] was more than 1000 nM each time.

Consider `C=CC(=O)Nc1cc(OCC(N)=O)ccc1Nc1nc(NC2CCOCC2)ncc1C(F)(F)F` [Compound I-387, N-(5-(2-amino-2-oxoethoxy)-2-((2-((tetrahydro-2H-pyran-4-yl)amino)-5-(trifluoromethyl)pyrimidin-4-yl)amino)phenyl)acrylamide], for which the EC50 in assay [1] and in assay [3] was 101 to 500 nM throughout.

Regarding `C=CC(=O)Nc1cc(C)ccc1Nc1nc(Nc2cc(OC)nnc2OC)ncc1C(F)(F)F` [Compound I-372, N-(2-((2-((3,6-dimethoxypyridazin-4-yl)amino)-5-(trifluoromethyl)pyrimidin-4-yl)amino)-5-methylphenyl)acrylamide], the EC50 in assay [1] was less than 100 nM; in assay [3] it was 101 to 500 nM.

As to `C=CC(=O)Nc1cc(C)ccc1Nc1nc(Nc2cc(C(=O)OC)nn2C)ncc1C(F)(F)F` [Compound I-418, Methyl 5-((4-((2-acrylamido-4-methylphenyl)amino)-5-(trifluoromethyl)pyrimidin-2-yl)amino)-1-methyl-1H-pyrazole-3-carboxylate], the figures for the EC50 in assay [1] and in assay [3] were 501 to 999 nM and 101 to 500 nM, respectively.

As to `C=CC(=O)Nc1cc(C)ccc1Nc1nc(NCC2COC2)ncc1C(F)(F)F` [Compound I-417, N-(5-methyl-2-((2-((oxetan-3-ylmethyl)amino)-5-(trifluoromethyl)pyrimidin-4-yl)amino)phenyl)acrylamide], the EC50 in assay [1] and in assay [3] was more than 1000 nM each time.
